Converted amounts (≈) assume the structure as drawn.

A short description of data set [1]: Volume of distribution at steady state in CD1 mouse at 1 mg/kg, iv and 2 mg/kg, po. Type of data set: ADME, organism-based. The conditions noted are these: in vivo, read-out: Vdss.
Data set [2] is described as follows: Bioavailability in CD1 mouse at 1 mg/kg, iv and 2 mg/kg, po. The conditions noted are these: in vivo. The format is ADME, organism-based.
A short description of data set [3]: Clearance in CD1 mouse at 1 mg/kg, iv and 2 mg/kg, po. The format is ADME, organism-based. The note with it: in vivo.
The nature of data set [4]: Dose normalized AUC in CD1 mouse at 1 mg/kg, iv and 2 mg/kg, po. The format is ADME, organism-based. The note with it: in vivo.
The nature of data set [5]: MRT in CD1 mouse at 1 mg/kg, iv and 2 mg/kg, po. The conditions noted are these: in vivo. The format is ADME, organism-based.
Data set [6] is described as follows: Dose normalized AUC in C57BL/6 mouse at 2 mg/kg, po. The note with it: in vivo. The format is ADME, organism-based.
Data set [7] is described as follows: Terminal half life in DIO NFR-transgenic mouse plasma at 100 mg/kg, po once daily for 14 days. The format is ADME, organism-based. The conditions noted are these: time 14 day, read-out: beta t1/2 (converted).
The nature of data set [8]: Half life in C57BL/6 mouse at 0.6 mg/kg, iv. The format is ADME, organism-based. The conditions noted are these: in vivo.
Data set [9] is described as follows: Lipophilicity, logD of the compound at pH 7.3 by HPLC analysis. The conditions noted are these: buffer. The format is physicochemical.
The nature of data set [10]: Terminal half life in DIO NFR-transgenic mouse adipose tissue at 100 mg/kg, po once daily for 14 days. Type of data set: ADME, organism-based. The conditions noted are these: in vivo, time 14 day.
A short description of data set [11]: Terminal half life in DIO NFR-transgenic mouse liver at 100 mg/kg, po once daily for 14 days. The format is ADME, organism-based. The note with it: in vivo, time 14 day.
Data set [12] in a line: Solubility of the compound in pH 7 phosphate buffer. Type of data set: physicochemical.
Data set [13] in a line: Terminal half life in C57BL/6-transgenic mouse expressing human CETP at 200 mg/kg, po qd treated for 7 days measured for 240 hrs. The conditions noted are these: in vivo, 168 h, time 7 day. Type of data set: ADME, organism-based.
The nature of data set [14]: Total clearance in C57BL/6 mouse in whole blood at 1 mg/kg, iv. Type of data set: ADME, organism-based.
Data set [15] is described as follows: Half life in C57BL/6 mouse at 1 mg/kg, iv. Type of data set: ADME, organism-based. The conditions noted are these: in vivo.
A short description of data set [16]: Cmax in C57BL/6 mouse at 1 mg/kg, iv and 2 mg/kg, po. The format is ADME, organism-based. Details: dose 2 mg/kg. The conditions noted are these: in vivo.
Data set [17] in a line: Oral bioavailability in C57BL/6 mouse at 2 mg/kg. The note with it: in vivo. Type of data set: ADME, organism-based.
Data set [18] in a line: Terminal half life in C57BL/6-transgenic mouse expressing human CETP at 100 mg/kg, po qd treated for 7 days measured for 240 hrs. The note with it: C57BL/6-transgenic expressing human CETP, in vivo, time 7 day, read-out: beta t1/2 (converted). Type of data set: ADME, organism-based.
Data set [19] can be described thus: Solubility of the compound in pH 7 phosphate buffer by shake-flask method. The format is physicochemical.
Data set [20] in a line: Metabolic stability in liver microsomes (unknown origin). The format is ADME, Microsome.
Data set [21] is described as follows: Terminal half life in DIO NFR-transgenic mouse plasma at 30 mg/kg, po once daily for 14 days. The conditions noted are these: time 14 day, read-out: beta t1/2 (converted). The format is ADME, organism-based.
Data set [22] is described as follows: Terminal half life in DIO NFR-transgenic mouse adipose tissue at 30 mg/kg, po once daily for 14 days. Type of data set: ADME, organism-based. The note with it: time 14 day, read-out: beta t1/2 (converted).
Data set [23] can be described thus: Terminal half life in DIO NFR-transgenic mouse liver at 30 mg/kg, po once daily for 14 days. The note with it: time 14 day, read-out: beta t1/2 (converted). The format is ADME, organism-based.

The term MRT denotes a mean duration of stay, worked out from the concentration-time curve. As for `COc1ccc(-c2ccc(C(=O)O)cc2C)cc1-c1cnc(N(C)C)nc1[C@@H]1CC[C@H]2[C@@H](c3cc(C(F)(F)F)cc(C(F)(F)F)c3)OC(=O)N12`, the Vd in [1] was determined as 5.6 L/kg. Besides, the bioavailability in [2] is 140%. Also, the clearance in data set [3] was 33 mL/min/kg. This compound also yielded an AUC/dose in data set [4] of 0.7 µM·h. This compound displayed an MRT in data set [5] of 2.8 h.
The term logD denotes lipophilicity at a set pH, counting ionised and neutral species. One may read the solubility as how much of the substance goes into solution per volume. A lower solubility goes with little dissolved substance. In data set [6], `COc1cc(F)c(C(C)C)cc1-c1ccc(C(F)(F)F)cc1CN1C(=O)O[C@H](c2cc(C(F)(F)F)cc(C(F)(F)F)c2)[C@@H]1C` [ANACETRAPIB] returned an AUC/dose of 0.36 µM·kg·h/mg. Moreover, the half-life at […] in data set [7] was 1620 min. Also, the half-life in [8] was 216 min. Further, the log distribution coefficient (logD) in [9] was more than 6.9. Also, the “beta t1/2” value in data set [10] is 150 h; in data set [11] it was 49 h; in data set [13] it was 121 h. Further, in [12], the solubility was less than 1 µM.
The Cmax is the highest concentration seen after dosing. By thermodynamic solubility is commonly meant the concentration in solution at equilibrium with solid. `Cc1cc(C(=O)O)ccc1-c1ccc(Cl)c(-c2ccc(C(F)(F)F)cc2CN2C(=O)O[C@H](c3cc(C(F)(F)F)cc(C(F)(F)F)c3)[C@@H]2C)c1` showed a clearance in [14] of 5.6 mL/min/kg. In addition, in [6], the AUC/dose was determined as 1.8 µM·kg·h/mg. In addition, the half-life in data set [15] was 3720 min; in [18], 3.46 days. Also, the peak level in [16] (Cmax) was 390 nM. The bioavailability in [17] turned out to be 43%. The logD in data set [9] is 6.2. Further, the solubility (thermodynamic) in data set [19] was found to be 43 µM (≈ 30.8 µg/mL). This compound gave a solubility in data set [12] of 43 µM (≈ 30.8 µg/mL).
For `COc1ncc(-c2ccc(C(=O)O)cc2C)cc1-c1cc(C(F)(F)F)c(OC)nc1CN1C(=O)O[C@H](c2cc(C(F)(F)F)cc(C(F)(F)F)c2)[C@@H]1C`, the logD in data set [9] amounted to 5.7. The compound further yielded a thermodynamic solubility in [19] of 5 µM (≈ 3.72 µg/mL).
`COc1cc(F)c(-c2ccc(C(=O)O)cc2C)cc1-c1ccc(C(F)(F)F)cc1[C@@H]1CC[C@H]2[C@@H](c3cc(C(F)(F)F)cc(C(F)(F)F)c3)OC(=O)N12`: the Vd in data set [1] is 2.3 L/kg. In [2], the bioavailability was 60%. In [9], this compound showed a logD of 5.5. Moreover, the clearance in data set [3] is 6.6 mL/min/kg. This compound showed an AUC/dose in [4] of 3.4 µM·h. This compound gave an MRT in data set [5] of 5.8 h.
`COc1ccc(-c2ccc(C(=O)O)cc2C)cc1-c1cnc(N(C)C)nc1CN1C(=O)O[C@H](c2cc(C(F)(F)F)cc(C(F)(F)F)c2)[C@@H]1C` yielded a logD in data set [9] of 4.8. This compound also gave a thermodynamic solubility in [19] of 43 µM (≈ 29.6 µg/mL).
With `COc1ccc(-c2ccc(C(=O)O)cc2C)cc1-c1cc(C(C)C)c(N(C)C)nc1[C@@H]1CC[C@H]2[C@@H](c3cc(C(F)(F)F)cc(C(F)(F)F)c3)OC(=O)N12`, the logD in data set [9] came to 6.6. Also, in data set [20], the Stabilty result was “Unstable”.
`COc1ccc(-c2ccc(C(=O)O)cc2C)cc1-c1ccc(C(F)(F)F)cc1CN1C(=O)O[C@H](c2cc(C(F)(F)F)cc(C(F)(F)F)c2)[C@@H]1C`: the clearance in data set [14] stood at 18 mL/min/kg. Also, the AUC/dose in data set [6] was determined as 0.86 µM·kg·h/mg. In data set [15], the half-life is 150 min. The compound further gave a Cmax in [16] of 430 nM. For the same compound, the bioavailability in data set [17] is 65%. The compound further had a solubility in data set [12] of 16 µM (≈ 11.4 µg/mL).
`COc1ccc(-c2ccc(C(=O)O)cc2C)cc1-c1cnc(N2CC(F)C2)nc1CN1C(=O)O[C@H](c2cc(C(F)(F)F)cc(C(F)(F)F)c2)[C@@H]1C`: the log distribution coefficient (logD) in data set [9] was 4.6. In data set [19], this compound showed a solubility (thermodynamic) of 8 µM (≈ 5.75 µg/mL).
`COc1ccc(-c2ccc(C(=O)O)cc2C)cc1-c1cnc(C(F)(F)F)nc1CN1C(=O)O[C@H](c2cc(C(F)(F)F)cc(C(F)(F)F)c2)[C@@H]1C` gave a logD in data set [9] of 4.9. In addition, the solubility (thermodynamic) in data set [19] is 6 µM (≈ 4.28 µg/mL).
On to `COc1cc(F)c(-c2ccc(C(=O)O)cc2C)cc1-c1ccc(C(F)(F)F)cc1[C@@H]1CC[C@H]2[C@@H](c3cc(C)cc(C(F)(F)F)c3)OC(=O)N12`, for which the Stabilty result in data set [20] is on record as “Unstable”.
In data set [9], `COc1ncc(-c2c(C)cc(C(=O)O)cc2C)cc1-c1ccc(C(F)(F)F)cc1[C@@H]1CC[C@H]2[C@@H](c3cc(F)cc(C(F)(F)F)c3)OC(=O)N12` returned a pH-dependent lipophilicity (logD) of 4.8. In addition, the Stabilty result in data set [20] is listed as “Unstable”.
For `COc1ncc(-c2ccc(C(=O)O)cc2C)cc1-c1ccc(C(F)(F)F)nc1CN1C(=O)O[C@H](c2cc(C(F)(F)F)cc(C(F)(F)F)c2)[C@@H]1C`, the logD in data set [9] turned out to be 5.1. This compound yielded a thermodynamic solubility in data set [19] of 9 µM (≈ 6.42 µg/mL).
As to `Cc1cc(C)c2c(c1)[C@@H](N(Cc1cc(C(F)(F)F)cc(C(F)(F)F)c1)c1nnn(C)n1)CCCN2C[C@H]1CC[C@H](C(=O)O)CC1` [EVACETRAPIB], the half-life at […] in [21] is 426 min; in [22] it was 78 min; in data set [23] it was 1080 min.
Regarding `COc1ncc(-c2cc(-c3ccc(C(=O)O)cc3C)ccc2OC)c(CN2C(=O)O[C@H](c3cc(C(F)(F)F)cc(C(F)(F)F)c3)[C@@H]2C)n1`, the logD in data set [9] was 4.2. In data set [19], the thermodynamic solubility was found to be 52 µM (≈ 35.1 µg/mL).
The compound `COc1ccc(C(C)C)cc1-c1ccc(C(F)(F)F)cc1CN1C(=O)O[C@H](c2cc(C(F)(F)F)cc(C(F)(F)F)c2)[C@@H]1C` displayed a clearance in [14] of 19 mL/min/kg. In addition, the AUC/dose in data set [6] was 0.29 µM·kg·h/mg. In data set [15], this compound gave a half-life of 294 min. The same compound had a peak concentration (Cmax) in data set [16] of 160 nM. Besides, in [17], the bioavailability was 17%. Further, in [9], the logD was more than 6.9. In data set [19], the thermodynamic solubility was less than 2 µM. For the same compound, the solubility in [12] is less than 1 µM.
As for `COc1ccc(-c2ccc(C(=O)O)cc2C)cc1-c1cnc(C(C)(F)F)nc1CN1C(=O)O[C@H](c2cc(C(F)(F)F)cc(C(F)(F)F)c2)[C@@H]1C`, in [9], the logD amounted to 4.6. This compound had a solubility (thermodynamic) in [19] of 20 µM (≈ 14.2 µg/mL).
